Laboratory results as given in patent US20220002772A1, “METHOD FOR PRODUCING ALLOLACTOSE” (priority 2019, published 2022).

How the values were obtained:
[1] = system: lac promoter on the pUC19 plasmid; assay: Lac promoter inducibility with DasherGFP reporter (JM109+pUC-DGFP-PtI strain); format: cell-based, E. coli JM109; settings: allolactose at 0.0075 mM in LB agar medium, 37° C. overnight, UV illuminator
Description: It is assumed that since blue coloration of the degradation product of X-gal by beta-galactosidase (LacZ) was used as the evaluation index in the evaluation in (6) above, allolactose was degraded by beta-galactosidase (LacZ), which is the reporter gene, and as a result the lac promoter inducibility of allolactose was attenuated under conditions with allolactose concentrations of 0.0075 to 0.015 mM.
PCR was performed by using FPB-27-441 plasmid (Cosmo Bio) as the template and primers of SEQ ID NOS: 5 and 6, to amplify a gene fragment encoding DasherGFP. Separately, PCR was performed by using a plasmid pUC19 plasmid (Takara Bio) as the template and primers of SEQ ID NOS: 7 and 8, to amplify an outside fragment of the plasmid. The PCR products were each purified by using Wizard SV Gel and PCR Clean-Up System (Promega). In-Fusion HD Cloning Kit (Takara Bio) was used to ligate the purified PCR products. E. coli JM109 was transformed with the reaction product, and cultured on LB agar medium containing 50 mg/L ampicillin at 37° C. overnight, to form colonies, to thereby obtain a transformant. A plasmid pUC19-DGFP, in which LacZα gene has been replaced with DasherGFP gene, was obtained from the obtained transformant by using Wizard Plus Miniprep System (Promega). […]

[2] = system: lac promoter; assay: Lac promoter inducibility in pET expression system (GH1-2 protein expression, SDS-PAGE, strain EcGHH6); format: cell-based, E. coli Rosetta 2(DE3)pLysS; settings: liquid culture
Description: The lac promoter inducibility of allolactose was evaluated using the inducibility of pET expression system, which is commonly used for heterologous protein production, as an indicator. In the pET expression system, T7-polymerase, which is inducibly expressed from the lac promoter, highly expresses a gene downstream of the T7 promoter (e.g. a gene encoding a heterologous protein). As the heterologous protein to be produced, beta-galactosidase gene of a filamentous fungus Talaromyces cellulolyticus (hereinafter, also referred to as “gh1-2 gene”) was used.
RNA was prepared form cells of the T. cellulolyticus strain Y-94 (CBS 136886) by using RNeasy Plant Mini Kit (QIAGEN), and a full-length cDNA solution was prepared form the RNA solution by using SMARTer® RACE 5′/3′ kit. PCR was performed by using the cDNA solution as the template and primers of SEQ ID NOS: 13 and 14, to amplify a cDNA fragment of gh1-2 gene. Separately, PCR was performed by using a plasmid pET24a (Novagen) as the template and primers of SEQ ID NOS: 3 and 4, to amplify an outside fragment of the plasmid. The PCR products were each purified by using Wizard SV Gel and PCR Clean-Up System (Promega). In-Fusion HD Cloning Kit (Takara Bio) was used to ligate the purified PCR products. […]

[3] = system: lac promoter on the pUC19 plasmid; assay: Lac promoter inducibility by Blue-White screening method (JM109+pUC19 strain, X-Gal plates); format: cell-based, E. coli JM109; parameters: key to Blue coloration of formed colonies of JM109 + pUC19 strain: “x (cross)” indicates no blue coloration; “Δ (triangle)” indicates unclear blue coloration; “∘ (circle)” indicates clear blue coloration
Description: The lac promoter inducibility of allolactose was evaluated by the Blue-White screening method using E. coli JM109 and pUC19 plasmid.
Competent cells of E. coli JM109 (Takara Bio) were transformed with pUC19 plasmid (Takara Bio), and cultured on LB agar medium containing 50 mg/L ampicillin at 37° C. overnight, to form colonies. The formed colonies were streaked on LB agar medium containing 50 mg/L ampicillin, and single colonies were obtained, to thereby obtain a strain JM109+pUC19. […] Beta-galactosidase activity of the strain JM109 is lost unless alpha-complementarity is exerted.
The reaction mixture containing 55.8 g/L of allolactose obtained in (4) above was subjected to heating at 95° C. for 10 minutes to inactivate the enzyme, and the supernatant was passed through a 0.22 μm pore size filter, to obtain an allolactose solution. The obtained allolactose solution was diluted according to the dilution factors listed in Table 4 and added to LB agar media, and X-Gal (Thermo Fisher Scientific) was further added, to prepare LB agar media for Blue-White screening containing various concentrations of allolactose and X-gal. X-gal is degraded by beta-galactosidase, and the degradation product thereof, 4-chloro-3-bromo-indigo, provides blue coloration.
The JM109+pUC19 strain was streaked on each LB agar medium for Blue-White screening and cultured at 37° C. overnight, and the coloration of single-isolated colonies was observed.

## OC[C@H]1O[C@@H](OC[C@H]2OC(O)[C@H](O)[C@@H](O)[C@@H]2O)[C@H](O)[C@@H](O)[C@H]1O (some centres unmarked) [allolactose]
[1]
  Fluorescent coloration of colonies (DasherGFP expression from lac promoter): fluorescent coloration of the colonies of the JM109+pUC-DGFP-PtI strain was observed
[2]; allolactose concentrations below 0.1 mM
  Expression level of heterologous protein (GH1-2): decreased
[2]; allolactose final concentration 0.1 mM, 13° C., 14 hours
  Expression of heterologous protein (GH1-2) compared with induction by 1 mM IPTG: almost equally
[3]; allolactose concentrations of 0.0075 to 0.015 mM
  Blue coloration of colonies (lac promoter inducibility): blue coloration was obscured
[3]; allolactose concentrations of 0.03 to 1.5 mM
  Blue coloration of colonies, i.e. induction of gene expression from the lac promoter: blue coloration of colonies was observed
[3]; final concentration of allolactose in plate media 0.0075 mM (dilution factor 21736)
  Blue coloration of formed colonies of JM109 + pUC19 strain: Δ
[3]; final concentration of allolactose in plate media 0.015 mM (dilution factor 10868)
  Blue coloration of formed colonies of JM109 + pUC19 strain: Δ
[3]; final concentration of allolactose in plate media 0.03 mM (dilution factor 5434)
  Blue coloration of formed colonies of JM109 + pUC19 strain: ∘
[3]; final concentration of allolactose in plate media 0.075 mM (dilution factor 2174)
  Blue coloration of formed colonies of JM109 + pUC19 strain: ∘
[3]; final concentration of allolactose in plate media 0.15 mM (dilution factor 1087)
  Blue coloration of formed colonies of JM109 + pUC19 strain: ∘
[3]; final concentration of allolactose in plate media 0.3 mM (dilution factor 543)
  Blue coloration of formed colonies of JM109 + pUC19 strain: ∘
[3]; final concentration of allolactose in plate media 1.5 mM (dilution factor 109)
  Blue coloration of formed colonies of JM109 + pUC19 strain: ∘
[3]; final concentration of allolactose in plate media 3 mM (dilution factor 54)
  Blue coloration of formed colonies of JM109 + pUC19 strain: Δ
[3]; final concentration of allolactose in plate media 15 mM (dilution factor 11)
  Blue coloration of formed colonies of JM109 + pUC19 strain: x
